This experiment concerns mouse sarcoma cell line S180. Put plainly: Subcutaneous S180 sarcoma model in mice. The note with it: 2.5 μg pMVA-1 and/or 25 μg DOTAP sc every 3 days x5; 21 days after inoculation. The class given is in vivo, KM mice. How it is done: KM mice aged 6-8 weeks were raised. The mouse sarcoma cell line S180 cultured to the logarithmic growth phase was prepared into a cell suspension, and mouse subcutaneous tumor was modeled by subcutaneous injection in the right axilla of each mouse. The number of cells injected into each mouse was 1×10^7, and the injection system was 200 μl for each mouse.
On the 5th day after inoculation of S180 sarcoma cells, when the tumor could be palpated, 40 tumor-bearing mice were randomly divided into 4 groups according to Table 12: i.e. negative control group (NS), DOTAP control group, pMVA-1 control group, and treatment group pMVA-1/DOTAP group. Then, the mice were subcutaneously administrated according to Table 12: 2.5 μg of plasmid pMVA-1 for each mouse in the pMVA-1 control group; 25 μg of DOTAP for each mouse in DOTAP control group; 2.5 μg of DNA and 25 μg of DOTAP for each mouse in the treatment group of the pMVA-1/DOTAP complex group; that is, the mass ratio of plasmid DNA to DOTAP was 1:10. After that, they were administrated every three days for a total of 5 times. The mice were killed and the tumor-free rate of the mice was counted 21 days after inoculation of the tumor.

As for `CCCCCCCC/C=C\CCCCCCCC(=O)OCC(C[N+](C)(C)C)OC(=O)CCCCCCC/C=C\CCCCCCCC` (stereo not shown) [DOTAP, 1,2-dioleoyl-3-trimethylammonium-propane], the “tumor-free rate of mice” value worked out at 20%.
